From patent US20200087625A1, “METHODS FOR ISOLATING, EXPANDING AND ADMINISTERING CANCER SPECIFIC CD8+ T CELLS” (priority 2017, published 2020)

Key:
[1] = cited from earlier work
SCC7 = SCC7 tumor model, 1V270 with systemic anti-PD-1 agent; format: in vivo, C3H mice; settings: day 21, flow cytometry
Experimental: FIGS. 2A-2F. […] C3H mice (n=5-8/group) were implanted with SCC7 and carcinoma cells 1A. Tumors and spleens were harvested on day 21 and T cells in TILs or spleens were analyzed by flow cytometry. (A and B) Tumor infiltrating CD8^+ T cells were gated on CD45^+CD3^+CD8^+ populations. Number of CD8^+ T cells (A) and IFNγ^+CD8^+ cells (B) per tumor volume (mm^3) were calculated and plotted. (C) Representative immunohistochemistry images of the tumors (day 21) stained for CD8 (red) and DAPI (blue). Scale bar: 20 μm. (D) Number of IFNγ^+CD8^+ T cells in spleens. Bars indicate mean±SEM. Each dot represents an individual animal and bars indicate mean±SEM in A, B and D. P*<0.05, **P<0.01 (Kruskal-Wallis test with Dunn's post hoc test), n=5-8/group. (E) Tumor volumes at the injected sites were plotted against the log of the number of IFNγ^+CD8^+ T cells in the tumor microenvironment. […] (F) The tumor volumes (day 21, injected side) were plotted against the log of the numbers of IFNγ^+CD8^+ T cells in the spleen.
FIGS. 3A-3E. […] (A-D) SCC7-bearing mice (n=4/group) were treated as described in FIG. 2. Tumors and spleens were harvested on day 21 and CD8^+ T cells were isolated using MACSMicroBead. RNA was isolated and next-generation sequencing was performed. (A) Representative data of TCR repertoire clonality of CD8^+ T cells. […]

B16-GLF cells = assay: IV metastasis model of B16 melanoma; format: in vivo, mice; settings: systemic 1V270 day -1
Experimental: (§1) FIGS. 27A-27D. […] Therapeutic effects of 1V270 were evaluated in IV metastatic models of 816 melanoma (A, B) and LLC (C, D). BG-albino mice (n=B-10) (A, C), C57BL6 wild type mice (n=15-20) (B and D), were i.p. administered with 200 μg 1V270 or vehicle!iNext day, 5×10^5 B16-GLF cells (A) or 1×10^5 LLC-GLF cells (c) were i.v. administered (A,C). The tumor signals were quantified by IVIS at day 14. […] (B,D) The mice were monitored daily and were euthanized upon reaching the criteria according to UCSD IACUC guidelines. The survival data were analyzed by Log-Rank test. Data were pooled from 2 independent experiments showing similar results and were analyzed by Living Image® software. […] Statistical differences were analyzed by the Mann-Whitney U test comparing 1V270 treatment groups against the vehicle. **P<0.05.
(§2) GFP and luciferase (GLF)-expressing tumor cells (2×10^4 of 4T1-GLF, 5×10^5 of B16-GLF, and […] of LLC-GLF) were i.v. injected into BALB/c mice for 4T1 models, BG-albino or wild-type C57BU6 for B16 melanoma or LLC models). […] Image data were acquired by 1 Ss exposure using the IVIS Spectrum and analyzed using the Living Image software, version 4.5.2 (Perkin Elmer, Waltham, Mass.). We confirmed that the tumor signals in the lungs at day 10 correlated with the number of lung metastasis determined on day 21, as well as the overall survival (Supplemental figures 10). […]

LLC-GLF cells = assay: IV metastasis model of Lewis lung carcinoma (LLC); format: in vivo, mice; settings: systemic 1V270 day -1
Experimental: as §1, §2

Structure (SMILES): CCCCCCCCC=CCCCCCCCC(=O)OCC(COP(=O)(O)OCCNC(=O)c1ccc(Cn2c(=O)[nH]c3c(N)nc(OCCOC)nc32)cc1)OC(=O)CCCCCCCC=CCCCCCCCC (stereo not drawn) [1V270]
- systemic cytokine release after intranasal administration [1]: without inducing systemic cytokine release
- CD8+ population in TILs (SCC7): increased CD8^+ population in TILs
- lung metastasis (IVIS tumor signal) (B16-GLF cells; B16-GLF, day 14): inhibited lung metastasis by day 14
- mouse survival (B16-GLF cells; B16): prolonged mouse survival
- lung metastasis (IVIS tumor signal) (LLC-GLF cells; LLC-GLF, day 14): inhibited lung metastasis by day 14
- mouse survival (LLC-GLF cells; LLC): prolonged mouse survival
